Assay results taken from patent publication US8940896B2, “Tetra-cyclic carboline derivatives useful in the inhibition of angiogenesis” (PTC Therapeutics, Inc., priority 2004, dated 2015).

Tested on: VEGF
Test: Hypoxia-inducible endogenous VEGF expression, VEGF ELISA assay
Assay type: cell-based
Details: HeLa cells, hypoxic conditions (1% O2, 5% CO2), VEGF in conditioned media
Method: The ability of the compounds of the invention to modulate hypoxia-inducible endogenous VEGF expression may be analyzed as follows. VEGF protein levels may be monitored by an ELISA assay (R&D Systems). Briefly, HeLa cells may be cultured for 24-48 hours under hypoxic conditions (1% O2, 5% CO2, balanced with nitrogen) in the presence or absence of a compound of the invention. The conditioned media may then be assayed by ELISA, and the concentration of VEGF calculated from the standard ELISA curve of each assay.
A dose-response analysis may be performed using the ELISA assay and conditions described above. The conditions for the dose-response ELISA are analogous to those described above. A series of, e.g., seven different concentrations may be analyzed. In parallel, a dose-response cytotoxicity assay may be performed using CellTiter Glo (Promega) under the same conditions as the ELISA to ensure that the inhibition of VEGF expression was not due to the cytotoxicity. Dose-response curves may be plotted using percentage inhibition versus concentration of the compound, and EC50 and CC50 values may be generated for each compound with the maximal inhibition set as 100% and the minimal inhibition as 0%.

EC50 (Homo sapiens, HeLa) [nM] | EC50 [nM] | Structure (SMILES)
> 1000 |  | COc1cccc(C2c3[nH]c4ccccc4c3CC3C(=O)N(C4CCCCC4)C(=S)N32)c1 (racemic) [Compound 2]
 | > 1000 | O=C1C2Cc3c([nH]c4ccccc34)C(C3CCCCC3)N2C(=S)N1C1CCCCC1 (centres unmarked) [Compound 1]
> 1000 |  | O=C1C2Cc3c([nH]c4ccccc34)C(c3ccc4c(c3)OCO4)N2C(=S)N1C1CCCCC1 (centres unmarked) [Compound 3]
> 1000 |  | O=C1C2Cc3c([nH]c4ccccc34)C(c3ccc(F)cc3)N2C(=S)N1C1CCCCC1 (centres unmarked) [Compound 4]
 | > 1000 | O=C1C2Cc3c([nH]c4ccccc34)C(C3CCCCC3)N2C(=S)N1C1CC1 (centres unmarked) [Compound 5]
> 1000 |  | COc1cccc(C2c3[nH]c4ccccc4c3CC3C(=O)N(C4CC4)C(=S)N32)c1 (centres unmarked) [Compound 6]
 | 8 to 40 | O=C1C2Cc3c([nH]c4ccc(Br)cc34)C(c3ccc4c(c3)OCO4)N2C(=S)N1C1CCCCC1 (centres unmarked) [Compound 9]
8 to 40 |  | O=C1C2Cc3c([nH]c4ccc(Br)cc34)C(c3ccc(F)cc3)N2C(=S)N1C1CCCCC1 (centres unmarked) [Compound 10]
200 to 1000 |  | O=C1C2Cc3c([nH]c4ccccc34)C(C3CCCCC3)N2C(=S)N1C1CCCC1 (centres unmarked) [Compound 11]
> 1000 |  | COc1cccc(C2c3[nH]c4ccccc4c3CC3C(=O)N(C4CCCC4)C(=S)N32)c1 (centres unmarked) [Compound 12]
40 to 200 |  | COc1ccc(C2c3[nH]c4ccccc4c3CC3C(=O)N(C4CCCC4)C(=S)N32)cc1 (centres unmarked) [Compound 13]
200 to 1000 |  | O=C1C2Cc3c([nH]c4ccccc34)C(c3ccc4c(c3)OCO4)N2C(=S)N1C1CCCC1 (centres unmarked) [Compound 14]
200 to 1000 |  | O=C1C2Cc3c([nH]c4ccc(Br)cc34)C(C3CCCCC3)N2C(=S)N1C1CC1 (centres unmarked) [Compound 15]
 | < 8 | COc1cccc(C2c3[nH]c4ccc(Br)cc4c3CC3C(=O)N(C4CC4)C(=S)N32)c1 (centres unmarked) [Compound 16]
< 8 |  | COc1ccc(C2c3[nH]c4ccc(Br)cc4c3CC3C(=O)N(C4CC4)C(=S)N32)cc1 (centres unmarked) [Compound 17]
< 8 |  | O=C1C2Cc3c([nH]c4ccc(Br)cc34)C(c3ccc4c(c3)OCO4)N2C(=S)N1C1CC1 (centres unmarked) [Compound 18]
8 to 40 |  | O=C1C2Cc3c([nH]c4ccc(Br)cc34)C(C3CCCCC3)N2C(=S)N1C1CCCC1 (centres unmarked) [Compound 19]
< 8 |  | COc1cccc(C2c3[nH]c4ccc(Br)cc4c3CC3C(=O)N(C4CCCC4)C(=S)N32)c1 (centres unmarked) [Compound 20]
< 8 |  | COc1ccc(C2c3[nH]c4ccc(Br)cc4c3CC3C(=O)N(C4CCCC4)C(=S)N32)cc1 (centres unmarked) [Compound 21]
< 8 |  | O=C1C2Cc3c([nH]c4ccc(Br)cc34)C(c3ccc4c(c3)OCO4)N2C(=S)N1C1CCCC1 (centres unmarked) [Compound 22]
8 to 40 |  | COc1ccc(C2c3[nH]c4ccc(C)cc4c3CC3C(=O)N(C4CCCCC4)C(=S)N32)cc1 (centres unmarked) [Compound 23]
40 to 200 |  | COc1ccc(C2c3[nH]c4ccc(OC)cc4c3CC3C(=O)N(C4CCCCC4)C(=O)N32)cc1 (centres unmarked) [Compound 24]
< 8 |  | O=C1C2Cc3c([nH]c4ccc(Cl)cc34)C(c3ccc4c(c3)OCO4)N2C(=S)N1C1CCCCC1 (centres unmarked) [Compound 25]
40 to 200 |  | O=C1C2Cc3c([nH]c4ccc(Br)cc34)C(c3ccc(OCCN4CCCCC4)cc3)N2C(=S)N1C1CCCCC1 (centres unmarked) [Compound 26]

EC50 (Homo sapiens, HeLa) [nM] | EC50 [nM] | Structure (SMILES)
 | < 8 | COc1ccc(C2c3[nH]c4ccc(Br)cc4c3CC3C(=O)N(C4CCCCC4)C(=S)N32)cc1 (centres unmarked) [Compound 27]
8 to 40 |  | COc1cccc(C2c3[nH]c4ccc(Br)cc4c3CC3C(=O)N(C4CCCCC4)C(=S)N32)c1 (centres unmarked) [Compound 28]
8 to 40 |  | O=C1C2Cc3c([nH]c4ccc(Br)cc34)C(c3ccc4c(c3)OCO4)N2C(=O)N1C1CCCCC1 (centres unmarked) [Compound 29]
40 to 200 |  | O=C1C2Cc3c([nH]c4ccc(Br)cc34)C(C3CCCCC3)N2C(=S)N1C1CCCCC1 (centres unmarked) [Compound 30]
40 to 200 |  | O=C1C2Cc3c([nH]c4ccc(Cl)cc34)C(c3ccc4c(c3)OCO4)N2C(=O)N1C1CCCCC1 (centres unmarked) [Compound 31]
40 to 200 |  | CCN1C(=O)C2Cc3c([nH]c4ccc(C)cc34)C(c3ccc(OC)cc3)N2C1=O (centres unmarked) [Compound 33]
200 to 1000 |  | Cc1ccc(N2C(=O)C3Cc4c([nH]c5ccccc45)C(c4cccc(Cl)c4)N3C2=S)cc1 (centres unmarked) [Compound 34]
200 to 1000 |  | COc1ccc(C2c3[nH]c4ccccc4c3CC3C(=O)N(c4ccc(C(C)C)cc4)C(=O)N32)cc1 (centres unmarked) [Compound 35]
> 1000 |  | O=C1C2Cc3c([nH]c4ccccc34)C(c3cccc(Cl)c3)N2C(=S)N1C1CCCCC1 (centres unmarked) [Compound 36]
> 1000 |  | Cc1ccccc1N1C(=O)C2Cc3c([nH]c4ccccc34)C(c3cccc(Cl)c3)N2C1=S (centres unmarked) [Compound 37]
> 1000 |  | O=C1C2Cc3c([nH]c4ccccc34)C(c3cccc(Cl)c3)N2C(=S)N1CCc1ccccc1 (centres unmarked) [Compound 38]
200 to 1000 |  | O=C1C2Cc3c([nH]c4ccccc34)C(c3cccc(Cl)c3)N2C(=S)N1c1cccc(F)c1 (centres unmarked) [Compound 39]
200 to 1000 |  | COc1ccc(C2c3[nH]c4ccccc4c3CC3C(=O)N(C4CCCCC4)C(=S)N32)cc1 (centres unmarked) [Compound 40]
 | 200 to 1000 | COc1ccc(C2c3[nH]c4ccccc4c3CC3C(=O)N(C4CCCCC4)C(=S)N32)cc1 (centres unmarked) [Compound 41]
200 to 1000 |  | COc1ccc(C2c3[nH]c4ccccc4c3CC3C(=O)N(C(C)C)C(=S)N32)cc1 (centres unmarked) [Compound 42]
200 to 1000 |  | COc1ccc(C2c3[nH]c4ccccc4c3CC3C(=O)N(c4cccc(F)c4)C(=S)N32)cc1 (centres unmarked) [Compound 43]
200 to 1000 |  | Cc1ccc2[nH]c3c(c2c1)CC1C(=O)N(C2CCCCC2)C(=O)N1C3c1ccc2c(c1)OCO2 (centres unmarked) [Compound 44]
200 to 1000 |  | COc1ccc(C2c3[nH]c4ccc(C)cc4c3CC3C(=O)N(C4CCCCC4)C(=O)N32)cc1 (centres unmarked) [Compound 45]
> 1000 |  | COc1ccc(C2c3[nH]c4ccccc4c3CC3C(=O)N(c4ccc(C)cc4)C(=S)N32)cc1 (centres unmarked) [Compound 46]
> 1000 |  | COc1ccc(C2c3[nH]c4ccccc4c3CC3C(=O)N(C4CCCCC4)C(=O)N32)cc1 (centres unmarked) [Compound 48]
> 1000 |  | COc1ccc(C2c3[nH]c4ccccc4c3CC3C(=O)N(c4ccccc4)C(=O)N32)cc1 (centres unmarked) [Compound 50]
> 1000 |  | COC(=O)c1cccc(N2C(=O)C3Cc4c([nH]c5ccccc45)C(c4ccc(OC)cc4)N3C2=S)c1 (centres unmarked) [Compound 51]
> 1000 |  | CN1C(=O)C2Cc3c([nH]c4ccccc34)C(c3ccc(Cl)c(Cl)c3)N2C1=S (centres unmarked) [Compound 53]
 | > 1000 | COc1ccc(C2c3[nH]c4ccccc4c3CC3C(=O)N(C4CCCCC4)C(=O)N32)cc1 (centres unmarked) [Compound 54]

EC50 (Homo sapiens, HeLa) [nM] | EC50 [nM] | Structure (SMILES)
> 1000 |  | CCN1C(=O)C2Cc3c([nH]c4ccc(Br)cc34)C(c3ccc(OC)cc3)N2C1=O (centres unmarked) [Compound 55]
> 1000 |  | O=C1C2Cc3c([nH]c4ccccc34)C(c3ccccc3)N2C(=S)N1C1CCCCC1 (centres unmarked) [Compound 56]
> 1000 |  | COc1cccc(C2c3[nH]c4ccccc4c3CC3C(=O)N(c4ccccc4)C(=S)N32)c1 (centres unmarked) [Compound 57]
> 1000 |  | CN1C(=O)C2Cc3c([nH]c4ccccc34)C(c3cccc(Cl)c3)N2C1=S (centres unmarked) [Compound 58]
> 1000 |  | COCCN1C(=O)C2Cc3c([nH]c4ccccc34)C(c3ccc(OC)cc3)N2C1=S (centres unmarked) [Compound 59]
> 1000 |  | COCCCN1C(=O)C2Cc3c([nH]c4ccccc34)C(c3ccc(OC)cc3)N2C1=S (centres unmarked) [Compound 62]
> 1000 |  | CN1C(=O)C2Cc3c([nH]c4ccccc34)C(c3ccc(F)cc3)N2C1=S (centres unmarked) [Compound 63]
> 1000 |  | CCN1C(=O)C2Cc3c([nH]c4ccccc34)C(c3cc(OC)c(OC)c(OC)c3)N2C1=S (centres unmarked) [Compound 64]
> 1000 |  | CN1C(=O)C2Cc3c([nH]c4ccccc34)C(c3cccc(F)c3)N2C1=S (centres unmarked) [Compound 65]
> 1000 |  | CCN1C(=O)C2Cc3c([nH]c4ccccc34)C(c3ccc(OC)cc3)N2C1=O (centres unmarked) [Compound 66]
> 1000 |  | C=CCN1C(=O)C2Cc3c([nH]c4ccccc34)C(c3cccc(Cl)c3)N2C1=S (centres unmarked) [Compound 67]
> 1000 |  | CC(C)N1C(=O)C2Cc3c([nH]c4ccccc34)C(c3cccc(Cl)c3)N2C1=S (centres unmarked) [Compound 68]
> 1000 |  | COc1ccc(C2c3[nH]c4ccccc4c3CC3C(=O)N(C(C)(C)C)C(=S)N32)cc1 (centres unmarked) [Compound 70]
> 1000 |  | COc1cc(C2c3[nH]c4ccccc4c3CC3C(=O)N(C)C(=S)N32)cc(OC)c1O (centres unmarked) [Compound 71]
> 1000 |  | O=C1C2Cc3c([nH]c4ccccc34)C(c3ccccc3)N2C(=O)N1C1CCCCC1 (centres unmarked) [Compound 72]
> 1000 |  | COc1ccc(C2c3[nH]c4ccccc4c3CC3C(=O)N(C)C(=S)N32)c(OC)c1OC (centres unmarked) [Compound 73]
> 1000 |  | COc1ccc(C2c3[nH]c4ccccc4c3CC3C(=O)N(c4ccccc4C(C)C)C(=S)N32)cc1 (centres unmarked) [Compound 74]
> 1000 |  | CN1C(=O)C2Cc3c([nH]c4ccccc34)C(c3cccc(Cl)c3Cl)N2C1=S (centres unmarked) [Compound 75]
> 1000 |  | COc1ccccc1C1c2[nH]c3ccccc3c2CC2C(=O)N(C)C(=S)N21 (centres unmarked) [Compound 76]
> 1000 |  | C=CCN1C(=O)C2Cc3c([nH]c4ccccc34)C(c3ccc(O)cc3)N2C1=S (centres unmarked) [Compound 77]
> 1000 |  | COc1ccc(C2c3[nH]c4ccccc4c3CC3C(=O)N(c4ccc(OC)cc4C)C(=S)N32)cc1 (centres unmarked) [Compound 78]
> 1000 |  | COc1ccc(C2c3[nH]c4ccccc4c3CC3C(=O)N(CCc4ccccc4)C(=S)N32)cc1 (centres unmarked) [Compound 79]
 | > 1000 | C=CCN1C(=O)C2Cc3c([nH]c4ccccc34)C(c3ccccc3OC)N2C1=S (centres unmarked) [Compound 85]
